According to PubChem BioAssay (NCI):
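The concentration for 50% growth inhibition is given as GI50. TGI marks complete inhibition of growth.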

Assays:
Assay in all cases: NCI-60 cell line screen, 384-well format
[1] = test system: 786-0 renal
[2] = test system: A498 renal
[3] = test system: A549 NSCLC
[4] = test system: ACHN renal
[5] = test system: BT-549 breast
[6] = test system: CAKI-1 renal
[7] = test system: CCRF-CEM leukemia
[8] = test system: COLO 205 colon
[9] = test system: DU-145 prostate
[10] = test system: EKVX NSCLC
[11] = test system: HCC-2998 colon
[12] = test system: HCT-15 colon
[13] = test system: HL-60(TB) leukemia
[14] = test system: HOP-62 NSCLC
[15] = test system: HOP-92 NSCLC
[16] = test system: HS 578T breast
[17] = test system: HT29 colon
[18] = test system: IGROV1 ovarian
[19] = test system: K-562 leukemia
[20] = test system: KM12 colon
[21] = test system: LOX IMVI melanoma
[22] = test system: M14 melanoma
[23] = test system: MALME-3M melanoma
[24] = test system: MCF7 breast
[25] = test system: MDA-MB-231 breast
[26] = test system: MDA-MB-435 melanoma
[27] = test system: MDA-MB-468 breast
[28] = test system: MOLT-4 leukemia
[29] = test system: NCI-H226 lung
[30] = test system: NCI-H23 lung
[31] = test system: NCI-H322M lung
[32] = test system: NCI-H460 NSCLC
[33] = test system: NCI-H522 lung
[34] = test system: NCI/ADR-RES ovarian
[35] = test system: OVCAR-4 ovarian
[36] = test system: OVCAR-5 ovarian
[37] = test system: OVCAR-8 ovarian
[38] = test system: PC-3 prostate
[39] = test system: RPMI-8226 leukemia
[40] = test system: RXF 393 renal
[41] = test system: SF-268 CNS
[42] = test system: SF-295 CNS
[43] = test system: SF-539 CNS
[44] = test system: SK-MEL-28 melanoma
[45] = test system: SK-MEL-5 melanoma
[46] = test system: SK-OV-3 ovarian
[47] = test system: SN12C renal
[48] = test system: SNB-19 CNS
[49] = test system: SNB-75 CNS
[50] = test system: SR leukemia
[51] = test system: SW-620 colon
[52] = test system: T-47D breast
[53] = test system: TK-10 renal
[54] = test system: U251 glioblastoma
[55] = test system: UACC-257 melanoma
[56] = test system: UACC-62 melanoma
[57] = test system: UO-31 renal

`CCC[C@H](N[C@@H]1CCc2cc(F)cc(F)c2C1)C(=O)Nc1cn(C(C)(C)CNCC(C)(C)C)cn1` gave a GI50 [1] of 13.4 µM, a TGI [1] of 26.5 µM and a GI50 [2] of 10.5 µM. For the same compound, the TGI [2] was 22.8 µM, the GI50 [3] was 13.9 µM and the TGI [3] was 46.8 µM. For the same compound, the GI50 [4] was 15.4 µM, the TGI [4] was 35.2 µM and the GI50 [5] was 9.95 µM. It also gave a TGI [5] of 22.1 µM, a GI50 [6] of 14.4 µM and a TGI [6] of 29.5 µM. For the same compound, the GI50 [7] was 7.5 µM, the TGI [7] was 21 µM and the GI50 [8] was 13.1 µM. It also gave a TGI [8] of 36.1 µM, a GI50 [9] of 17.2 µM and a TGI [9] of 48.8 µM. It also gave a GI50 [10] of 14.5 µM, a TGI [10] of 44.7 µM and a GI50 [11] of 6.98 µM. For the same compound, the TGI [11] was 19.9 µM, the GI50 [12] was 8.15 µM and the TGI [12] was 21.3 µM. It also gave a GI50 [13] of 2.77 µM, a TGI [13] of 14.5 µM and a GI50 [14] of 15.6 µM. The TGI [14] was 30.1 µM, the GI50 [15] was 11.7 µM and the TGI [15] was 24.1 µM. For the same compound, the GI50 [16] was 12.3 µM, the TGI [16] was 25.1 µM and the GI50 [17] was 11 µM. For the same compound, the TGI [17] was 23.7 µM, the GI50 [18] was 17.3 µM and the TGI [18] was 44.6 µM. It also gave a GI50 [19] of 10.6 µM, a TGI [19] of 22.8 µM and a GI50 [20] of 14.6 µM. For the same compound, the TGI [20] was 29.8 µM, the GI50 [21] was 17.8 µM and the TGI [21] was 31.9 µM. For the same compound, the GI50 [22] was 13.8 µM, the TGI [22] was 27 µM and the GI50 [23] was 2.14 µM. It also gave a TGI [23] of 12.2 µM, a GI50 [24] of 5.11 µM and a TGI [24] of 19.8 µM. It also gave a GI50 [25] of 12.3 µM, a TGI [25] of 27.1 µM and a GI50 [26] of 16.6 µM. It also gave a TGI [26] of 35.1 µM, a TGI [27] of 1.75 µM and a GI50 [28] of 4.04 µM. For the same compound, the TGI [28] was 15.2 µM, the GI50 [29] was 13.8 µM and the TGI [29] was 28.3 µM. It also gave a GI50 [30] of 11.9 µM, a TGI [30] of 26 µM and a GI50 [31] of 20.8 µM. For the same compound, the TGI [31] was 55.4 µM, the GI50 [32] was 14.9 µM and the TGI [32] was 28.9 µM. The GI50 [33] was 13.2 µM, the TGI [33] was 28.8 µM and the GI50 [34] was 10.9 µM. The TGI [34] was 24.3 µM, the GI50 [35] was 1.09 µM and the TGI [35] was 35.9 µM. For the same compound, the GI50 [36] was 19.7 µM, the TGI [36] was 49.4 µM and the GI50 [37] was 16.1 µM. The TGI [37] was 36.5 µM, the GI50 [38] was 7.53 µM and the TGI [38] was 21.4 µM. It also gave a GI50 [39] of 0.358 µM, a TGI [39] of 11.2 µM and a GI50 [40] of 10.7 µM. For the same compound, the TGI [40] was 24.1 µM, the GI50 [41] was 15.3 µM and the TGI [41] was 31.3 µM. The GI50 [42] was 13.8 µM, the TGI [42] was 26.9 µM and the GI50 [43] was 16.5 µM. For the same compound, the TGI [43] was 30.3 µM, the GI50 [44] was 12.7 µM and the TGI [44] was 25.9 µM. For the same compound, the GI50 [45] was 11.2 µM, the TGI [45] was 23.4 µM and the GI50 [46] was 14.2 µM. The TGI [46] was 29.5 µM, the GI50 [47] was 19.4 µM and the TGI [47] was 42.9 µM. For the same compound, the GI50 [48] was 16.8 µM, the TGI [48] was 39.7 µM and the GI50 [49] was 15.8 µM. For the same compound, the TGI [49] was 42.8 µM, the GI50 [50] was 4.2 µM and the TGI [50] was 16.2 µM. The GI50 [51] was 16.2 µM, the TGI [51] was 32.2 µM and the GI50 [52] was 2.11 µM. For the same compound, the TGI [52] was 17 µM, the GI50 [53] was 16 µM and the TGI [53] was 46 µM. For the same compound, the GI50 [54] was 15.5 µM, the TGI [54] was 29.3 µM and the GI50 [55] was 0.535 µM. For the same compound, the TGI [55] was 18.4 µM, the GI50 [56] was 15.7 µM and the TGI [56] was 29.3 µM. The GI50 [57] was 14.6 µM and the TGI [57] was 28.5 µM.
